Results: patent publication US20220061324A1, “PESTICIDALLY ACTIVE HETEROCYCLIC DERIVATIVES WITH SULFUR CONTAINING SUBSTITUENTS” (SYNGENTA CROP PROTECTION AG, priority 2018, published 2022)
Where two headings read alike, the source gives them in different places.

Tests used:
Assay type in all cases: in vivo
[1] = tested on: Diabrotica balteata (Corn Root Worm); assay: Activity against Diabrotica balteata (corn root worm), maize sprouts sprayed; details: 96 h, read-out: effect in at least one of the two categories (mortality or growth inhibition); for percent effect (mortality or growth inhibition) at 200 ppm: application rate 200 ppm, L2 larvae, 4 days after infestation
Procedure: Example B1: Activity Against Diabrotica balteata (Corn Root Worm)
Maize sprouts placed onto an agar layer in 24-well microtiter plates were treated with aqueous test solutions prepared from 10,000 ppm DMSO stock solutions by spraying. After drying, the plates were infested with L2 larvae (6 to 10 per well). The samples were assessed for mortality and growth inhibition in comparison to untreated samples 4 days after infestation.

[2] = tested on: Euschistus heros (Neotropical Brown Stink Bug); assay: Activity against Euschistus heros (neotropical brown stink bug), soybean leaves sprayed; details: 120 h, read-out: effect in at least one of the two categories (mortality or growth inhibition); for percent effect (mortality or growth inhibition) at 200 ppm: application rate 200 ppm, N2 nymphs, 5 days after infestation
Procedure: Example B2: Activity Against Euschistus heros (Neotropical Brown Stink Bug)
Soybean leaves on agar in 24-well microtiter plates were sprayed with aqueous test solutions prepared from 10,000 ppm DMSO stock solutions. After drying the leaves were infested with N2 nymphs. The samples were assessed for mortality and growth inhibition in comparison to untreated samples 5 days after infestation.

[3] = tested on: Plutella xylostella (Diamond Back Moth); assay: Activity against Plutella xylostella (diamond back moth), artificial diet; details: 192 h, read-out: effect in at least one of the two categories (mortality or growth inhibition); for percent effect (mortality or growth inhibition) at 200 ppm: application rate 200 ppm, eggs, 8 days after infestation
Procedure: Example B3: Activity Against Plutella xylostella (Diamond Back Moth)
24-well microtiter plates with artificial diet were treated with aqueous test solutions prepared from 10,000 ppm DMSO stock solutions by pipetting. After drying, Plutella eggs were pipetted through a plastic stencil onto a gel blotting paper and the plate was closed with it. The samples were assessed for mortality and growth inhibition in comparison to untreated samples 8 days after infestation.

[4] = tested on: Myzus persicae (Green Peach Aphid); assay: Activity against Myzus persicae (green peach aphid), feeding/contact activity; details: 144 h
Procedure: Example B4: Activity Against Myzus persicae (Green Peach Aphid) Feeding/Contact Activity
Sunflower leaf discs were placed onto agar in a 24-well microtiter plate and sprayed with aqueous test solutions prepared from 10,000 ppm DMSO stock solutions. After drying, the leaf discs were infested with an aphid population of mixed ages. The samples were assessed for mortality 6 days after infestation.

[5] = tested on: Spodoptera littoralis (Egyptian Cotton Leaf Worm); assay: Activity against Spodoptera littoralis (Egyptian cotton leaf worm), cotton leaf discs; details: foliar, 72 h, read-out: control (mortality, anti-feedant effect or growth inhibition)
Procedure: Example B5: Activity Against Spodoptera littoralis (Egyptian Cotton Leaf Worm)
Cotton leaf discs were placed onto agar in 24-well microtiter plates and sprayed with aqueous test solutions prepared from 10,000 ppm DMSO stock solutions. After drying the leaf discs were infested with five L1 larvae. The samples were assessed for mortality, anti-feeding effect, and growth inhibition in comparison to untreated samples 3 days after infestation. Control of Spodoptera littoralis by a test sample is given when at least one of the categories mortality, anti-feedant effect, and growth inhibition is higher than the untreated sample.

[6] = tested on: Frankliniella occidentalis (Western Flower Thrips); assay: Activity against Frankliniella occidentalis (western flower thrips), sunflower leaf discs; details: foliar, 168 h, application rate 200 ppm, mixed ages, 7 days after infestation
Procedure: Example B7: Activity Against Frankliniella occidentalis (Western Flower Thrips)
Sunflower leaf discs were placed on agar in 24-well microtiter plates and sprayed with aqueous test solutions prepared from 10,000 DMSO stock solutions. After drying the leaf discs were infested with a Frankliniella population of mixed ages. The samples were assessed for mortality 7 days after infestation.

[7] = application rate 200 ppm, feeding/contact, mixed ages, 6 days after infestation, read-out: mortality
[8] = application rate 200 ppm, L1 larvae, 3 days after infestation

CCS(=O)(=O)c1cc(Oc2ccccn2)cnc1-c1ncc2c(OCC(F)(F)C(F)(F)F)nccn12 [Compound P19, 3-[3-ethylsulfonyl-5-(2-pyridyloxy)-2-pyridyl]-8-(2,2,3,3,3-penta-fluoropropoxy)imidazo [1,5-a]pyrazine]
≥ 80%: percent effect (mortality or growth inhibition) at 200 ppm [1] | percent effect (mortality or growth inhibition) at 200 ppm [2] | percent effect (mortality or growth inhibition) at 200 ppm [3] | mortality at 200 ppm [4, 7] | percent control (mortality, anti-feedant effect or growth inhibition) at 200 ppm [5, 8]

CCS(=O)(=O)c1ccc(N(C)C(C)=O)nc1-c1ncc2c(OCC(F)(F)C(F)(F)F)nccn12 [Compound P11, N-[5-ethylsulfonyl-6-[8-(2,2,3,3,3-penta-fluoropropoxy)imidazo [1,5-a]pyrazin-3-yl]-2-pyridyl]-N-methyl-acetamide]
≥ 80%: percent effect (mortality or growth inhibition) at 200 ppm [1] | percent effect (mortality or growth inhibition) at 200 ppm [2] | percent effect (mortality or growth inhibition) at 200 ppm [3] | mortality at 200 ppm [4, 7] | percent control (mortality, anti-feedant effect or growth inhibition) at 200 ppm [5, 8] | mortality at 200 ppm [6]

CCSc1cc(N=S(C)(C)=O)cnc1-c1ncc2c(OCC(F)(F)C(F)(F)F)nccn12 [Compound P17, [5-ethylsulfanyl-6-[8-(2,2,3,3,3-penta-fluoropropoxy)imidazo [1,5-a]pyrazin-3-yl]-3-pyridyl]imino-dimethyl-oxo-λ^6-sulfane]
≥ 80%: percent effect (mortality or growth inhibition) at 200 ppm [1] | percent effect (mortality or growth inhibition) at 200 ppm [2] | percent effect (mortality or growth inhibition) at 200 ppm [3] | percent control (mortality, anti-feedant effect or growth inhibition) at 200 ppm [5, 8] | mortality at 200 ppm [6]

CCS(=O)(=O)c1cc(C2CC2)cnc1-c1ncc2c(OCC(F)(F)C(F)(F)F)nccn12 [Compound P21, 3-(5-cyclopropyl-3-ethylsulfonyl-2-pyridyl)-8-(2,2,3,3,3-penta-fluoropropoxy)imidazo [1,5-a]pyrazine]
≥ 80%: percent effect (mortality or growth inhibition) at 200 ppm [1] | percent effect (mortality or growth inhibition) at 200 ppm [2] | percent effect (mortality or growth inhibition) at 200 ppm [3] | mortality at 200 ppm [4, 7] | percent control (mortality, anti-feedant effect or growth inhibition) at 200 ppm [5, 8]

CCSc1cc(OC(C)(C)C#N)cnc1-c1ncc2c(OCC(F)(F)C(F)(F)F)nccn12 [Compound P50, 2-[[5-ethylsulfanyl-6-[8-(2,2,3,3,3-penta-fluoropropoxy)imidazo [1,5-a]pyrazin-3-yl]-3-pyridyl]oxy]-2-methyl-propanenitrile]
≥ 80%: percent effect (mortality or growth inhibition) at 200 ppm [1] | percent effect (mortality or growth inhibition) at 200 ppm [2] | percent effect (mortality or growth inhibition) at 200 ppm [3] | percent control (mortality, anti-feedant effect or growth inhibition) at 200 ppm [5, 8]

CCS(=O)(=O)c1ccc(NC)nc1-c1ncc2c(OCC(F)(F)C(F)(F)F)nccn12 [Compound P10, 5-ethylsulfonyl-N-methyl-6-[8-(2,2,3,3,3-penta-fluoropropoxy)imidazo [1,5-a]pyrazin-3-yl]pyri-din-2-amine]
≥ 80%: percent effect (mortality or growth inhibition) at 200 ppm [1] | percent effect (mortality or growth inhibition) at 200 ppm [2] | percent effect (mortality or growth inhibition) at 200 ppm [3] | mortality at 200 ppm [4, 7] | percent control (mortality, anti-feedant effect or growth inhibition) at 200 ppm [5, 8]

CCS(=O)(=O)c1cc(Oc2ccccn2)cnc1-c1ncc2c(OCC(F)(F)C(F)(F)F)cccn12 [Compound P36, 3-[3-ethylsulfonyl-5-(2-pyridyloxy)-2-pyridyl]-8-(2,2,3,3,3-penta-fluoropropoxy)imidazo [1,5-a]pyridine]
≥ 80%: percent effect (mortality or growth inhibition) at 200 ppm [1] | percent effect (mortality or growth inhibition) at 200 ppm [2] | percent effect (mortality or growth inhibition) at 200 ppm [3] | mortality at 200 ppm [4, 7]

CCS(=O)(=O)c1cc(C2(C#N)CC2)cnc1-c1ncc2c(OCC(F)(F)C(F)(F)F)nccn12 [Compound P15, 1-[5-ethylsulfonyl-6-[8-(2,2,3,3,3-penta-fluoropropoxy)imidazo [1,5-a]pyrazin-3-yl]-3-pyridyl]cyclopropane-carbonitrile]
≥ 80%: percent effect (mortality or growth inhibition) at 200 ppm [1] | percent effect (mortality or growth inhibition) at 200 ppm [2] | percent effect (mortality or growth inhibition) at 200 ppm [3] | mortality at 200 ppm [4, 7] | percent control (mortality, anti-feedant effect or growth inhibition) at 200 ppm [5, 8]

CCS(=O)(=O)c1cc(N(C)C(C)=O)cnc1-c1ncc2c(OCC(F)(F)C(F)(F)F)cccn12 [Compound P39, N-[5-ethylsulfonyl-6-[8-(2,2,3,3,3-penta-fluoropropoxy)imidazo [1,5-a]pyridin-3-yl]-3-pyridyl]-N-methyl-acetamide]
≥ 80%: percent effect (mortality or growth inhibition) at 200 ppm [2] | percent effect (mortality or growth inhibition) at 200 ppm [3] | mortality at 200 ppm [4, 7]

CCS(=O)(=O)c1cc(N=S(C)(C)=O)cnc1-c1ncc2c(OCC(F)(F)C(F)(F)F)cccn12 [Compound P45, [5-ethylsulfonyl-6-[8-(2,2,3,3,3-penta-fluoropropoxy)imidazo [1,5-a]pyridin-3-yl]-3-pyridyl]imino-dimethyl-oxo-λ^6-sulfane]
≥ 80%: percent effect (mortality or growth inhibition) at 200 ppm [2] | percent effect (mortality or growth inhibition) at 200 ppm [3] | mortality at 200 ppm [4, 7]

CCS(=O)(=O)c1ccc(-c2ncccn2)nc1-c1ncc2c(OCC(F)(F)C(F)(F)F)nccn12 [Compound P25, 3-(3-ethylsulfonyl-6-pyrimidin-2-yl-2-pyridyl)-8-(2,2,3,3,3-penta-fluoropropoxy)imidazo [1,5-a]pyrazine]
≥ 80%: percent effect (mortality or growth inhibition) at 200 ppm [1] | percent effect (mortality or growth inhibition) at 200 ppm [2] | percent effect (mortality or growth inhibition) at 200 ppm [3] | mortality at 200 ppm [4, 7] | percent control (mortality, anti-feedant effect or growth inhibition) at 200 ppm [5, 8]

CCS(=O)(=O)c1cc(C2(C#N)CC2)cnc1-c1ncc2c(OCC(F)(F)C(F)(F)F)cccn12 [Compound P35, 1-[5-ethylsulfonyl-6-[8-(2,2,3,3,3-penta-fluoropropoxy)imidazo [1,5-a]pyridin-3-yl]-3-pyridyl]cyclopropane-carbonitrile]
≥ 80%: percent effect (mortality or growth inhibition) at 200 ppm [1] | percent effect (mortality or growth inhibition) at 200 ppm [2] | percent effect (mortality or growth inhibition) at 200 ppm [3] | percent control (mortality, anti-feedant effect or growth inhibition) at 200 ppm [5, 8]

CCS(=O)(=O)c1cc(N=S(C)(C)=O)cnc1-c1ncc2c(OCC(F)(F)C(F)(F)F)nccn12 [Compound P18, [5-ethylsulfonyl-6-[8-(2,2,3,3,3-penta-fluoropropoxy)imidazo [1,5-a]pyrazin-3-yl]-3-pyridyl]imino-dimethyl-oxo-λ^6-sulfane]
≥ 80%: percent effect (mortality or growth inhibition) at 200 ppm [1] | percent effect (mortality or growth inhibition) at 200 ppm [2] | percent effect (mortality or growth inhibition) at 200 ppm [3] | mortality at 200 ppm [4, 7] | percent control (mortality, anti-feedant effect or growth inhibition) at 200 ppm [5, 8] | mortality at 200 ppm [6]

CCS(=O)(=O)c1cc(OC(C)(C)C#N)cnc1-c1ncc2c(OCC(F)(F)C(F)(F)F)cccn12 [Compound P47, 2-[[5-ethylsulfonyl-6-[8-(2,2,3,3,3-penta-fluoropropoxy)imidazo [1,5-a]pyridin-3-yl]-3-pyridyl]oxy]-2-methyl-propanenitrile]
≥ 80%: percent effect (mortality or growth inhibition) at 200 ppm [1] | percent effect (mortality or growth inhibition) at 200 ppm [2] | percent effect (mortality or growth inhibition) at 200 ppm [3] | mortality at 200 ppm [4, 7]

CCS(=O)(=O)c1cccnc1-c1ncc2c(OCC(F)(F)C(F)(F)F)nccn12 [Compound P8, 3-(3-ethylsulfonyl-2-pyridyl)-8-(2,2,3,3,3-pentafluoropropoxy)imi-dazo[1,5-a]pyrazine]
≥ 80%: percent control (mortality or growth inhibition) at 200 ppm [1] | percent control (mortality or growth inhibition) at 200 ppm [2] | percent control (mortality or growth inhibition) at 200 ppm [3] | mortality at 200 ppm [4] | percent control (mortality, anti-feedant effect or growth inhibition) at 200 ppm [5]
